# Source: US12076304B2, “Compositions comprising 15-HEPE and methods of treating or preventing hematologic disorders, and/or related diseases” (priority 2020, dated 2024)
# Marks after values point to notes of the source that are not given here.
# Legend:
# [1] = target: T1, type II TGF-β receptor (Homo sapiens, UniProt P37173); test: Type II TGF-β receptor degradation in HepG2 cells; assay type: cell-based; conditions: increasing doses for 1 hour, then 200 pM TGF-β for 48 hours
# T1 construct: endogenous in cells; host or cells: HepG2
# Experimental: (§1) The effects of 15-HEPE on TGF-β-induced signaling and cellular responses were determined. To test the effect of 15-HEPE on TGF-β-induced signaling, the activities of 15-HEPE to regulate TGF-β-stimulated Smad2 phosphorylation and nuclear translocation, both of which are key signaling events leading to TGF-β-induced cellular responses, were tested. One important biological activity of TGF-β is transcriptional activation of genes responsible for epithelial-mesenchymal transition (EMT), which is a crucial event in wound healing, tissue fibrosis, and cancer progression. The effect of 15-HEPE on TGFβ-induced epithelial mesenchymal transition related proteins (such as fibronectin, PAI-1, and N-cadherin etc.) expression in HepG2 and LXR cells were assessed. HepG2 cells (human hepatoma cell line) were treated in increasing doses of 15-HEPE stage II in DMEM containing 0.1% of FBS for 1 hour and continually stimulated with or without 200 picomolar (pM) of TGF-β for 48 hours.
# (§2) HepG2 cells (human hepatoma cell line) were treated in increasing doses of 15-HEPE stage II in DMEM containing 0.1% of FBS for 1 hour and continually stimulated with or without 200 picomolar (pM) of TGF-β for 48 hours. The two panels shown in FIG. 18A are two separate experiments run under the same experimental conditions.
# [2] = tested on: EGFR (epidermal growth factor receptor); test: Sucrose density gradient analysis in Mv1Lu cells, EGFR; assay type: cell-based, mink; conditions: 100 μM, 0-24 hours
# Experimental: (§3) Sucrose gradient ultracentrifugation and confocal microscopy were used to identify 15-HEPE induced microdomain translocation of TGF-β receptors […]. Sucrose density gradient analysis of TGF-β receptors was conducted in the plasma membranes of Mv1Lu cells (mink lung epithelial cell) treated with 100 μM of 15-HEPE and an equal volume of DMSO (dimethyl sulfoxide) at 37° C. for 0, 1, 4, and 24 hours, and the cell lysates from these treated cells were subjected to sucrose density gradient ultracentrifugation. The sucrose gradient fractions were then analyzed by Western blot analysis using anti-Tβ(type I TGF-β receptor), anti-TβR-II (type II TGF-β receptor), anti-TβR-III (type III TGF-β receptor, betaglycan), anti-EGFR (epidermal growth factor receptor), and anti-caveolin-1 antibodies. The lipid raft/caveolae, and non-lipid raft microdomain localization of TβR-I, TβR-II, TβR-III, EGFR and caveolin-1 in the plasma membrane of untreated cells or cells treated with 15-HEPE were assessed to determine the effects of 15-HEPE on the membrane microdomain localization of the TGF-β receptors. […]
# [3] = tested on: TβR-I (type I TGF-β receptor); test: Sucrose density gradient analysis in Mv1Lu cells, TβR-I; assay type: cell-based, mink; conditions: 100 μM
# Experimental: as §3
# [4] = tested on: TβR-III (type III TGF-β receptor, betaglycan); test: Sucrose density gradient analysis in Mv1Lu cells, TβR-III; assay type: cell-based, mink; conditions: 100 μM, 0-24 hours
# Experimental: as §3
# [5] = tested on: TGF-β induced epithelial mesenchymal transition (EMT) protein production; test: TGF-β induced EMT protein production in HepG2 cells; assay type: cell-based, human; conditions: increasing doses for 1 hour, then 200 pM TGF-β for 48 hours
# Experimental: as §1, §2
# [6] = tested on: caveolin-1; test: Sucrose density gradient analysis in Mv1Lu cells, caveolin-1; assay type: cell-based, mink; conditions: 100 μM, 0-24 hours
# Experimental: as §3
# [7] = tested on: TGF-β-stimulated intracellular signaling (SMAD2/3 phosphorylation); test: TGF-β-stimulated SMAD2/3 phosphorylation in LX2 liver stellate cells; assay type: cell-based, human; conditions: 0 μM to 100 μM for 24 hours, then 30 min TGF-β
# [8] = tested on: TβR-II (type II TGF-β receptor); test: Sucrose density gradient analysis in Mv1Lu cells, TβR-II; assay type: cell-based, mink; conditions: for translocation and degradation of type II TGF-β receptors: summary of Example 3, free acid or ethyl ester form
# Experimental: Sucrose gradient ultracentrifugation and confocal microscopy were used to identify 15-HEPE induced microdomain translocation of TGF-β receptors […]. Sucrose density gradient analysis of TGF-β receptors was conducted in the plasma membranes of Mv1Lu cells (mink lung epithelial cell) treated with 100 μM of 15-HEPE and an equal volume of DMSO (dimethyl sulfoxide) at 37° C. for 0, 1, 4, and 24 hours, and the cell lysates from these treated cells were subjected to sucrose density gradient ultracentrifugation. The sucrose gradient fractions were then analyzed by Western blot analysis using anti-Tβ(type I TGF-β receptor), anti-TβR-II (type II TGF-β receptor), anti-TβR-III (type III TGF-β receptor, betaglycan), anti-EGFR (epidermal growth factor receptor), and anti-caveolin-1 antibodies. The lipid raft/caveolae, and non-lipid raft microdomain localization of TβR-I, TβR-II, TβR-III, EGFR and caveolin-1 in the plasma membrane of untreated cells or cells treated with 15-HEPE were assessed to determine the effects of 15-HEPE on the membrane microdomain localization of the TGF-β receptors.
# A 15-HEPE sucrose density gradient analysis of TGF-β receptors was conducted in the plasma membranes of mink lung epithelial cell (Mv1 Lu) cells treated with 100 μM of 15-HEPE and an equal volume of dimethyl sulfoxide (DMSO) at 37° C. for 0, 1, 4, and 24 hours, and the cell lysates from these treated cells were subjected to sucrose density gradient ultracentrifugation. The sucrose gradient fractions were then analyzed by Western blot analysis using anti-TβR-I (type I TGF-β receptor—FIG. 18C), anti-TβR-II (type II TGF-β receptor-FIG. 18D), anti-TβR-III (type III TGF-β receptor, betaglycan-FIG. 18E), anti-EGFR (epidermal growth factor receptor-FIG. 18F), and anti-caveolin-1 antibodies (FIG. 18G). Fractions 4 to 5 contained lipid rafts/caveolae whereas fractions 7-10 were non-lipid raft fractions. […] Stars(*) indicate 15-HEPE increased abundance of TβR-I (24 hours) in the fraction in comparison with that of the control and shorter treatment durations (FIG. 18C). […] The triangles (▾) indicate translocation and decreased abundance of TβR-II in the fraction in comparison with control cells (FIG. 18D).
# [9] = tested on: Sprague Dawley rats; test: 26 week oral gavage toxicity study in rats: tolerability, clinical signs; assay type: in vivo; conditions: 6 g/kg/day oral gavage, replaced with 3 g/kg/day
# Experimental: (§4) The test and control items were administered to the appropriate animals by once daily oral gavage 7 days a week for a minimum of 26 weeks. The volume for each animal was based on the most recent body weight measurements. The doses were given using a syringe with attached gavage cannula. The first day of dosing was designated as Day 1. The dosing formulations were removed from the refrigerator and stirred for at least 30 minutes before dosing. The dosing formulations were also stirred continuously during dosing.
# Due to the onset of clinical signs, including hunched posture, erect fur and abnormal gait and body weight loss, animals 3206M, 3515F and 3703F were given a dosing holiday from Day 45 and remaining Group 3 animals were given a dosing holiday from Day 48. Animals will start dosing at the lower dose level (3000 mg/kg/day) from Day 64. The following tables illustrate the treatments (Table 23) and animal groupings (Table 24) that were used in the study.
# Mortality/moribundity checks were made daily. […] Animals were not removed from the cage during observation, unless necessary for identification or confirmation of possible findings.
# Post-dose observations were made regularly throughout the day. […] The onset, intensity, and duration of these signs were recorded; particular attention was paid to the animals during and for the first hour after dosing. […]
# [10] = tested on: Sprague Dawley rats; test: 26 week oral gavage toxicity study in rats: haematology; assay type: in vivo; conditions: 26 weeks; for Red blood cell count (RBC), Mean / Red Cell Distribution Width (RDW), Mean / Reticulocyte count (RETIC), Mean: male rats; for Red blood cell count (RBC), Mean: vehicle 8.38; for Red Cell Distribution Width (RDW), Mean: vehicle 14.98; for Reticulocyte count (RETIC), Mean: vehicle 219.51
# Experimental: as §4
# (§5) Sample Collection: Blood was collected via the tail vein unless immediately prior to necropsy, when blood was collected from the orbital sinus under non-recoverable isoflurane anesthesia. Blood was collected in ascending animal order unless samples were collected prior to necropsy where the order of euthanasia was followed. Additional blood samples were obtained (e.g. due to clotting of non-serum samples) if permissible sampling frequency and blood volume were not exceeded. After collection, samples were transferred to the appropriate laboratory for processing. Samples were collected according to the following table.
# Hematology: A 0.5 mL blood sample was collected using the anticoagulant K2EDTA. Blood smears were labelled, stained, and stored. The blood smears were analyzed according to the following parameters.
# (§6) Animals: The study used male and female Sprague Dawley rats purchased from Charles River UK Limited (Margate, Kent, UK). The target age at the initial dosing was 7-8 weeks. The target weight at the initial dosing was 175-300 g (males) and 120-250 g (females). Each animal was identified using a subcutaneously implanted electronic cylindrical, “glass-sealed” TROVAN microchip.
# [11] = tested on: Sprague Dawley rats; test: 26 week oral gavage toxicity study in rats: coagulation; assay type: in vivo; conditions: 26 weeks; for Fibrinogen (FIB), Mean / Prothrombin Time (PT), Mean / Activated Partial Thromboplastic Time (APTT), Mean: male rats; for Fibrinogen (FIB), Mean: vehicle 2.61; for Prothrombin Time (PT), Mean: vehicle 10.25; for Activated Partial Thromboplastic Time (APTT), Mean: vehicle 12.92; for APTT compared to control / FIB concentration compared to control / PT compared to control: rats
# Experimental: as §4, §5
# Coagulation: A 0.5 mL blood sample was collected using the anticoagulant 3.8% (w/v) trisodium citrate for processing to plasma. To assess coagulation the following coagulation parameters were measured.
# as §6
# [12] = 0.5% HPMC dosing formulations; same preparation and storage conditions (4° C.); concentrations bracketing those used; cited from earlier work
# [13] = tested on: rats; conditions: oral once daily, 26 weeks, highest dose tested 1 mg/kg/day; cited from earlier work
# [14] = 6000/3000 mg/kg/day oral gavage
# T1 sequence (P37173 23-567): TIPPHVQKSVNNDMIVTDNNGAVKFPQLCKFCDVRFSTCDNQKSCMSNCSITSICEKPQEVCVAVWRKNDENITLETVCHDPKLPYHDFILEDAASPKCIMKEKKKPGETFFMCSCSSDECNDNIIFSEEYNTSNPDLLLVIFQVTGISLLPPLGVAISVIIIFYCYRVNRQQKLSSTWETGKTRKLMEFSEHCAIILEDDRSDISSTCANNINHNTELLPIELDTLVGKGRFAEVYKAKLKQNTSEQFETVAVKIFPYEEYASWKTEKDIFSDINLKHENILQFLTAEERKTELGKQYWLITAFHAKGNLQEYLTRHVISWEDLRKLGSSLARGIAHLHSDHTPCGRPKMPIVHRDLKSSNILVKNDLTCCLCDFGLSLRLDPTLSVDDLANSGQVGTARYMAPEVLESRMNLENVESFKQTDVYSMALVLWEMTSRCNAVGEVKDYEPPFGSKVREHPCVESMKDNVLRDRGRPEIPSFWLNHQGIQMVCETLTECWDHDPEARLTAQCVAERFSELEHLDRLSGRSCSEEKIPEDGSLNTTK
compound,measurement,setting,value
"CC/C=C\CC(O)/C=C/C=C\C/C=C\C/C=C\CCCC(=O)O (stereo not shown) [15-HEPE, 15-hydroxy-eicosa-5Z,8Z,11Z,13E,17Z-pentaenoic acid]",degradation of type II TGF-β receptor,[1],induced degradation
same,localization and abundance of EGFR,[2],did not change
same,abundance of TβR-I proteins,"[3]; 37° C., 0, 1, 4, 24 hours",did not affect
same,translocation of TβR-I to lipid-raft,[3]; 24 hours treatment,induced translocation
same,localization and abundance of TβR-III,[4],did not change
same,TGF-β induced EMT (pro-fibrotic) protein production,[5],blocked
same,localization and abundance of caveolin-1,[6],did not change
same,TGF-β-stimulated intracellular signaling (SMAD2/3 phosphorylation),[7],inhibited
same,TβR-II degradation,"[8]; Mv1Lu cells, 100 μM, 24 hours treatment",induce degradation
same,TβR-II translocation,"[8]; Mv1Lu cells, 100 μM, from 1 to 4 hours",induced TβR-II translocation
same,translocation and degradation of type II TGF-β receptors,[8],induced translocation and degradation
"CC/C=C\C[C@H](O)/C=C/C=C\C/C=C\C/C=C\CCCC(=O)OCC [15-HEPE EE, 15-HEPE ethyl ester]",TGF-β induced EMT (pro-fibrotic) protein production,[5],blocked
same,TGF-β-stimulated intracellular signaling (SMAD2/3 phosphorylation),[7],inhibited
same,translocation and degradation of type II TGF-β receptors,[8],induced translocation and degradation
CC/C=C\C[C@H](O)/C=C/C=C\C/C=C\C/C=C\CCCC(=O)OCC [15(S)-HEPE EE],tolerability of the highest dose,[9],not well tolerated
same,"Red blood cell count (RBC), Mean",[10]; 2000 mg/kg/day oral gavage,8.67 10^∧12/L
same,"Red Cell Distribution Width (RDW), Mean",[10]; 2000 mg/kg/day oral gavage,13.91** %
same,"Reticulocyte count (RETIC), Mean",[10]; 2000 mg/kg/day oral gavage,154.60* 10^∧9/L
same,"Red blood cell count (RBC), Mean",[10]; [14],8.81** 10^∧12/L
same,"Red Cell Distribution Width (RDW), Mean",[10]; [14],13.60** %
same,"Reticulocyte count (RETIC), Mean",[10]; [14],141.46** 10^∧9/L
same,RDW compared to control,"[10]; rats, 2 g/kg/day dose",significant decrease
same,RETIC compared to control,"[10]; rats, 2 g/kg/day dose",significant decrease
same,RBC compared to control,"[10]; rats, 3 g/kg/day dose",significant increase
same,RDW compared to control,"[10]; rats, 3 g/kg/day dose",significant decrease
same,RETIC compared to control,"[10]; rats, 3 g/kg/day dose",significant decrease
same,"Fibrinogen (FIB), Mean",[11]; 2000 mg/kg/day oral gavage,2.35** g/L
same,"Prothrombin Time (PT), Mean",[11]; 2000 mg/kg/day oral gavage,10.69** sec
same,"Activated Partial Thromboplastic Time (APTT), Mean",[11]; 2000 mg/kg/day oral gavage,15.03* sec
same,"Fibrinogen (FIB), Mean",[11]; [14],2.26** g/L
same,"Prothrombin Time (PT), Mean",[11]; [14],10.81** sec
same,"Activated Partial Thromboplastic Time (APTT), Mean",[11]; [14],15.73** sec
same,APTT compared to control,[11]; 2 g/kg/day dose,significant increase
same,FIB concentration compared to control,[11]; 2 g/kg/day dose,significant decrease
same,PT compared to control,[11]; 2 g/kg/day dose,significant increase
same,APTT compared to control,[11]; 3 g/kg/day dose,significant increase
same,FIB concentration compared to control,[11]; 3 g/kg/day dose,significant decrease
same,PT compared to control,[11]; 3 g/kg/day dose,significant increase
same,stability of the test item in the vehicle,[12],stable
same,adverse effects at the highest dose tested,[13],no adverse effects
